Reference: BindingDB's records for doi:10.7270/Q2RN3686 (Emory University, 2009)

target: Eukaryotic translation initiation factor 4 gamma 1 (Homo sapiens, UniProt Q04637); experiment: eIF4E–eIF4G protein interaction inhibitors, dose response, biochemical, TR-FRET (AID 855)
Sequence (Q04637 whole entry): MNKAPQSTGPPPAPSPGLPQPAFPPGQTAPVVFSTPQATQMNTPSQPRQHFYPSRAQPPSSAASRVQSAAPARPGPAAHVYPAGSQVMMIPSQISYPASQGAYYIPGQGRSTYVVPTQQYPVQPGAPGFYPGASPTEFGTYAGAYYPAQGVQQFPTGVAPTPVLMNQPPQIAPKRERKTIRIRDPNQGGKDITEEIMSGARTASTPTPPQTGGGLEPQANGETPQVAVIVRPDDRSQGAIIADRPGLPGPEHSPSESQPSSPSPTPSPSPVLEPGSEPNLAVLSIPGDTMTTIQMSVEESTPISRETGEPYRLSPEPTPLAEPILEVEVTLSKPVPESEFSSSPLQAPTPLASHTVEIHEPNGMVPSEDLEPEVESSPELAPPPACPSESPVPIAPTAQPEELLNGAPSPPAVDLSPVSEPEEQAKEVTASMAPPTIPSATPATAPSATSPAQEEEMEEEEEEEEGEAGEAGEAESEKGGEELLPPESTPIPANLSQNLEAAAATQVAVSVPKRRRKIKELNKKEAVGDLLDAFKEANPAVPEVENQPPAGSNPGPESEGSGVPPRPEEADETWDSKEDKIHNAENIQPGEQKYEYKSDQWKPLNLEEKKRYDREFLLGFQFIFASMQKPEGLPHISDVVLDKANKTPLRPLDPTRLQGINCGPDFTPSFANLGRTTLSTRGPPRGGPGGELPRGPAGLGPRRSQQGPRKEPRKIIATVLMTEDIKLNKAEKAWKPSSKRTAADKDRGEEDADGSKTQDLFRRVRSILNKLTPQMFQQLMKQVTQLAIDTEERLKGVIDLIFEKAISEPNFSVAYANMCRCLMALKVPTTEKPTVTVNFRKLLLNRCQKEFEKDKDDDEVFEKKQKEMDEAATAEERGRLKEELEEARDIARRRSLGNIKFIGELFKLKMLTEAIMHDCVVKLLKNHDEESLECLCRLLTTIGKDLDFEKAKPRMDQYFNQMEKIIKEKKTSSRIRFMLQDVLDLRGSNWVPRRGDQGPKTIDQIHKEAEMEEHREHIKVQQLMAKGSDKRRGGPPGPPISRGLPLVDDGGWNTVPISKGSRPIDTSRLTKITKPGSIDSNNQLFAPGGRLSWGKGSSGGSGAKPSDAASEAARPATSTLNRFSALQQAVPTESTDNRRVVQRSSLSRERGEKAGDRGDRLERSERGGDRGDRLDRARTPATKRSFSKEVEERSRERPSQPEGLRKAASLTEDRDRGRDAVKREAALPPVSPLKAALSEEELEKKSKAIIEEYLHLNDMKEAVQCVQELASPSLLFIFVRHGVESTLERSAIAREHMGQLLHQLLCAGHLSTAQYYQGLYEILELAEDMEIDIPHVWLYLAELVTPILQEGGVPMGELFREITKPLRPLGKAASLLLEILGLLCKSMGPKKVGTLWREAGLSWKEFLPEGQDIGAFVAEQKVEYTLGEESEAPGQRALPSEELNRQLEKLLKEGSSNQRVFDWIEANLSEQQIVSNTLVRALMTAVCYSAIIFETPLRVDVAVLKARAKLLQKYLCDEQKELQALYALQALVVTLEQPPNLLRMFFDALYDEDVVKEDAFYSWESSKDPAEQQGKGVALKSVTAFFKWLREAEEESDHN

SMILES | IC50 [µM]
COc1ccc(Cc2c(O)n(-c3ccccc3)c(=O)[nH]c2=O)c(OC)c1 | > 64
C=c1cc2[nH]c(=O)c(=Cc3cc(C)n(-c4ccccc4)c3C)c(=N)n2o1 | > 64
COc1ccc(-c2cnnc(N=NCc3ccc(-c4ccc([N+](=O)[O-])cc4)o3)n2)cc1 | 50
Oc1cc(N2CCN(Cc3ccc4c(c3)OCO4)CC2)c(O)n1-c1cccc(Cl)c1 [1-(3-chlorophenyl)-3-(4-piperonylpiperazino)pyrrolidine-2,5-quinone] | > 64
O=C1Nc2ccc([N+](=O)[O-])cc2/C1=N/NC(=O)c1cc(-c2ccccc2Cl)nc2ccccc12 [2-(2-chlorophenyl)-N'-(2-keto-5-nitro-indol-3-yl)cinchoninohydrazide] | > 64
CC(=O)C1=C(c2ccccc2)OC(=N)C(C#N)C1c1ccc(O)cc1 (configuration not stated) [2-azanyl-5-ethanoyl-4-(4-hydroxyphenyl)-6-phenyl-4H-pyran-3-carbonitrile] | > 64
CC(C)(C)c1[nH]nc2c1C(c1ccc(OC(=O)c3ccco3)cc1)C(C#N)C(=N)O2 (configuration not stated) [2-furancarboxylic acid [4-(6-amino-3-tert-butyl-5-cyano-2,4-dihydropyrano[2,3-c]pyrazol-4-yl)phenyl] ester] | > 64
CSc1ccc(CN=Nc2cccc(C(=O)O)c2)cc1 [3-[(N'E)-N'-[4-(methylthio)benzylidene]hydrazino]benzoic acid] | 50
O=C1CCCC(=O)C1C(C#Cc1ccccc1)C1C(=O)CCCC1=O [3-hydroxy-2-[1-(2-hydroxy-6-keto-cyclohexen-1-yl)-3-phenyl-prop-2-ynyl]cyclohex-2-en-1-one] | > 64
Cc1cc(CN=Nc2ccc([N+](=O)[O-])cn2)c(C)n1-c1ccc(C(=O)O)cc1 [4-{2,5-dimethyl-3-[2-(5-nitro-2-pyridinyl)carbonohydrazonoyl]-1H-pyrrol-1-yl}benzoic acid] | 50
O=C1CCCC2=Nc3[nH]c(=S)[nH]c(=O)c3C(c3ccc(Br)cc3)C12 (configuration not stated) [5-(4-bromophenyl)-2-thioxo-2,3,5,8,9,10-hexahydropyrimido[4,5-b]quinoline-4,6(1H,7H)-dione] | > 64
NC(=NNC=c1ccc(=C2C=CC(=O)C(C(=O)O)=C2)o1)N[N+](=O)[O-] [5-(5-{2-[amino(nitroimino)methyl]carbonohydrazonoyl}-2-furyl)-2-hydroxybenzoic acid] | 63.6
CC(=O)C1=C(C)N=C(SCc2ccc(C#N)cc2)C(C#N)C1c1ccco1 (configuration not stated) [5-acetyl-2-[(4-cyanophenyl)methylsulfanyl]-4-(furan-2-yl)-6-methyl-1,4-dihydropyridine-3-carbonitrile] | > 64
COc1ccc(Cn2c(Nc3cc(Cl)ccc3OC)c3[nH]cccc-3c2=O)cc1 [7-[(5-chloranyl-2-methoxy-phenyl)amino]-6-[(4-methoxyphenyl)methyl]-7H-pyrrolo[3,4-b]pyridin-5-one] | 14.4
CN(C)[C@@H]1C(=O)C(C(N)=O)C(=O)[C@@]2(O)C(=O)C3C(=O)c4c(O)cccc4[C@@](C)(O)[C@H]3[C@H](O)[C@@H]12 (stereo partly drawn) [(2E,4S,4aR,5S,5aR,6S,12aS)-2-[azanyl(oxidanyl)methylidene]-4-(dimethylamino)-6-methyl-5,6,10,11,12a-pentakis(oxidanyl)-4,4a,5,5a-tetrahydrotetracene-1,3,12-trione] | 50
CN(C)[C@@H]1C(=O)C(C(=O)NCN2CCCC2)C(=O)[C@@]2(O)C(=O)C3C(=O)c4c(O)cccc4[C@@](C)(O)C3CC12 (stereo partly drawn) [(2Z,4S,6S,12aS)-4-(dimethylamino)-6,10,11,12a-tetrahydroxy-2-[hydroxy-(1-pyrrolidinylmethylamino)methylidene]-6-methyl-4,4a,5,5a-tetrahydrotetracene-1,3,12-trione] | 12.3
COc1ccc2nc(N3C(=O)C(=C4C(=O)Nc5ccccc54)NC3=S)sc2c1 [(3Z)-3-[1-(6-methoxy-1,3-benzothiazol-2-yl)-5-oxidanylidene-2-sulfanylidene-imidazolidin-4-ylidene]-1H-indol-2-one] | > 64
O=C1C=CC(CN=Nc2nccs2)C=C1[N+](=O)[O-] (configuration not stated) [(4Z)-2-nitro-4-[(2-thiazolylhydrazo)methylidene]-1-cyclohexa-2,5-dienone] | 10.8
COc1cc(C2C(C(=O)c3ccccc3)C(=O)C(=O)N2c2ccccn2)ccc1O (configuration not stated) [(4Z)-5-(3-methoxy-4-oxidanyl-phenyl)-4-[oxidanyl(phenyl)methylidene]-1-pyridin-2-yl-pyrrolidine-2,3-dione] | 50
O=C1N=C(Nc2ccc(O)cc2)SC1=C1C(=O)Nc2ccccc21 [(5Z)-2-[(4-hydroxyphenyl)amino]-5-(2-oxidanylidene-1H-indol-3-ylidene)-1,3-thiazol-4-one] | 50
O=[N+]([O-])c1cc(Br)c(O)c(CN=Nc2nnnn2-c2cccc3ccccc23)c1 [(6E)-2-bromo-6-[[2-(1-naphthalen-1-yltetrazol-5-yl)hydrazinyl]methylidene]-4-nitrocyclohexa-2,4-dien-1-one] | > 64
O=NCC(=O)Nc1ccc(F)cc1 [MLS000036190] | > 64
Cc1ccc(/C=C/C(=O)C2=C(O)N(C)C3(C)CC2c2ccccc2O3)cc1 (configuration not stated) [MLS000519940] | > 64
Cc1ccc(-n2c(C)cc(CN=Nc3ccc([N+](=O)[O-])cn3)c2C)cc1 [MLS000552475] | > 64
Cc1ccccc1C(=O)Nc1cccc(C(=O)N/N=C/C2C=C(Cl)C=C([N+](=O)[O-])C2=O)c1 (configuration not stated) [N-(3-{[(2E)-2-(5-chloro-2-hydroxy-3-nitrobenzylidene)hydrazino]carbonyl}phenyl)-2-methylbenzamide] | 50
Cc1ccc(Nc2c3[nH]cccc-3c(=O)n2-c2ccccc2C)cc1C [SMR000028201] | 9.59
C[N+](C)(C)c1ccc(CN=Nc2nc(Cl)c(C#N)c(Cl)c2Cl)cc1 [trimethyl-[4-[[(3,4,6-trichloro-5-cyanopyridin-2-yl)hydrazinylidene]methyl]phenyl]azanium;iodide] | > 64
